This passage reports MBC and MIC results from ChEMBL document CHEMBL2375306, “Antimicrobial peptides containing unnatural amino acid exhibit potent bactericidal activity against ESKAPE pathogens” (Bioorg Med Chem, 2013).

Each structure is given as a SMILES string. Converted amounts (≈) assume the structure as drawn. Square brackets hold non-standard residues; d marks the D form. Peptide text beside a SMILES is read from it. ξ: configuration not given here. Phe(4-NO2) = N[C@@H](Cc1ccc([N+](=O)[O-])cc1)C(=O)O; Pro(3ξ,4ξ-(CH2)4) = O=C(O)[C@H]1NCC2CCCCC21; Phe(4-Cl) = N[C@@H](Cc1ccc(Cl)cc1)C(=O)O; Phe(4-F) = N[C@@H](Cc1ccc(F)cc1)C(=O)O; Tic = O=C(O)[C@@H]1Cc2ccccc2CN1 A value given as a limit tells only on which side of the number the result lay.

Assay type in all cases: functional
One experiment has as its system Pseudomonas aeruginosa. Kind of experiment: Antibacterial activity against Pseudomonas aeruginosa PAO1 after 24 hrs by broth microdilution method. Conditions: PAO1, 24 h.
A further experiment has as its system Klebsiella aerogenes. Kind of experiment: Antibacterial activity against Enterobacter aerogenes after 24 hrs by broth microdilution method.
The test system of a further experiment is Staphylococcus aureus. Kind of experiment: Antibacterial activity against methicillin-sensitive Staphylococcus aureus UAMS-1 after 24 hrs by broth microdilution method. Conditions: UAMS-1, 24 h. (In broth dilution the organism is exposed to a series of concentrations in liquid medium.)
The next experiment deals with Klebsiella pneumoniae. Kind of experiment: Antibacterial activity against Klebsiella pneumoniae BAMS clinical isolate 07-18 after 24 hrs by broth microdilution method. As to conditions: BAMS clinical isolate 07-18, 24 h.
In another experiment the test system is Enterococcus faecium. Kind of experiment: Antibacterial activity against Enterococcus faecium MMC4 after 24 hrs by broth microdilution method. Conditions: MMC4, 24 h.
The subject of a further experiment is Acinetobacter baumannii. Kind of experiment: Antibacterial activity against Acinetobacter baumannii WRAIR clinical isolate 13 after 24 hrs by broth microdilution method. As to conditions: WRAIR clinical isolate 13, 24 h.

As for `CC(=O)NCC(=O)N[C@@H](Cc1ccc(Cl)cc1)C(=O)N1Cc2ccccc2C[C@H]1C(=O)N1CC2CCCCC2[C@H]1C(=O)NCC(=O)N[C@@H](CCCCN)C(=O)N1Cc2ccccc2C[C@H]1C(=O)N1CC2CCCCC2[C@H]1C(=O)NCC(=O)N[C@@H](Cc1ccc(Cl)cc1)C(=O)N1Cc2ccccc2C[C@H]1C(=O)N1CC2CCCCC2[C@H]1C(=O)NCC(=O)N[C@@H](CCCCN)C(=O)N1Cc2ccccc2C[C@H]1C(=O)N[C@@H](CCCCN)C(=O)N[C@@H](CCCCN)C(=O)N[C@@H](CCCCN)C(=O)N[C@@H](CCCCN)C(N)=O` (stereo partly drawn) (Ac-G[Phe(4-Cl)][Tic][Pro(3ξ,4ξ-(CH2)4)]GK[Tic][Pro(3ξ,4ξ-(CH2)4)]G[Phe(4-Cl)][Tic][Pro(3ξ,4ξ-(CH2)4)]GK[Tic]KKKK-NH2), the MBC (commonly the lowest tested concentration that kills the bacteria rather than only halting them) against Pseudomonas aeruginosa is 50 µg/mL (≈ 19.9 µM); in the experiment with Klebsiella aerogenes, > 100 µg/mL; with Staphylococcus aureus, 50 µg/mL (≈ 19.9 µM); in the experiment on Klebsiella pneumoniae, 100 µg/mL (≈ 39.8 µM); with Enterococcus faecium, 25 µg/mL (≈ 9.96 µM); against Acinetobacter baumannii it was 25 µg/mL (≈ 9.96 µM). Besides, the MIC – broadly, the lowest concentration that inhibits growth of the organism – was 50 µg/mL (≈ 19.9 µM) with Pseudomonas aeruginosa; > 100 µg/mL against Klebsiella aerogenes; 25 µg/mL (≈ 9.96 µM) against Staphylococcus aureus; 50 µg/mL (≈ 19.9 µM) with Klebsiella pneumoniae; 6.25 µg/mL (≈ 2.49 µM) in the experiment on Enterococcus faecium; 6.25 µg/mL (≈ 2.49 µM) against Acinetobacter baumannii.

`CC(=O)NCC(=O)N[C@@H](Cc1ccc(F)cc1)C(=O)N1Cc2ccccc2C[C@H]1C(=O)N1CC2CCCCC2[C@H]1C(=O)NCC(=O)N[C@@H](CCCCN)C(=O)N1Cc2ccccc2C[C@H]1C(=O)N1CC2CCCCC2[C@H]1C(=O)NCC(=O)N[C@@H](Cc1ccc(F)cc1)C(=O)N1Cc2ccccc2C[C@H]1C(=O)N1CC2CCCCC2[C@H]1C(=O)NCC(=O)N[C@@H](CCCCN)C(=O)N1Cc2ccccc2C[C@H]1C(=O)N[C@@H](CCCCN)C(=O)N[C@@H](CCCCN)C(=O)N[C@@H](CCCCN)C(=O)N[C@@H](CCCCN)C(N)=O` (stereo partly drawn) (Ac-G[Phe(4-F)][Tic][Pro(3ξ,4ξ-(CH2)4)]GK[Tic][Pro(3ξ,4ξ-(CH2)4)]G[Phe(4-F)][Tic][Pro(3ξ,4ξ-(CH2)4)]GK[Tic]KKKK-NH2): the minimal bactericidal concentration (MBC) in the experiment on Pseudomonas aeruginosa is > 100 µg/mL; in the experiment on Klebsiella aerogenes, > 100 µg/mL; in the experiment on Staphylococcus aureus, 100 µg/mL (≈ 40.4 µM); against Klebsiella pneumoniae, 100 µg/mL (≈ 40.4 µM); against Enterococcus faecium, 50 µg/mL (≈ 20.2 µM); with Acinetobacter baumannii, 25 µg/mL (≈ 10.1 µM). For the same molecule, the MIC against Pseudomonas aeruginosa was > 100 µg/mL; against Klebsiella aerogenes, > 100 µg/mL; against Staphylococcus aureus, 100 µg/mL (≈ 40.4 µM); against Klebsiella pneumoniae, 100 µg/mL (≈ 40.4 µM); against Enterococcus faecium it was 25 µg/mL (≈ 10.1 µM); in the experiment with Acinetobacter baumannii it was 12.5 µg/mL (≈ 5.05 µM).

For `CC(=O)NCC(=O)N[C@@H](Cc1ccc([N+](=O)[O-])cc1)C(=O)N1Cc2ccccc2C[C@H]1C(=O)N1CC2CCCCC2[C@H]1C(=O)NCC(=O)N[C@@H](CCCCN)C(=O)N1Cc2ccccc2C[C@H]1C(=O)N1CC2CCCCC2[C@H]1C(=O)NCC(=O)N[C@@H](Cc1ccc([N+](=O)[O-])cc1)C(=O)N1Cc2ccccc2C[C@H]1C(=O)N1CC2CCCCC2[C@H]1C(=O)NCC(=O)N[C@@H](CCCCN)C(=O)N1Cc2ccccc2C[C@H]1C(=O)N[C@@H](CCCCN)C(=O)N[C@@H](CCCCN)C(=O)N[C@@H](CCCCN)C(=O)N[C@@H](CCCCN)C(N)=O` (stereo partly drawn) (Ac-G[Phe(4-NO2)][Tic][Pro(3ξ,4ξ-(CH2)4)]GK[Tic][Pro(3ξ,4ξ-(CH2)4)]G[Phe(4-NO2)][Tic][Pro(3ξ,4ξ-(CH2)4)]GK[Tic]KKKK-NH2), the MBC in the experiment on Pseudomonas aeruginosa was 100 µg/mL (≈ 39.5 µM); against Klebsiella aerogenes, 100 µg/mL (≈ 39.5 µM); in the experiment with Staphylococcus aureus it was > 100 µg/mL; in the experiment with Klebsiella pneumoniae it was 50 µg/mL (≈ 19.8 µM); in the experiment on Enterococcus faecium it was 50 µg/mL (≈ 19.8 µM); against Acinetobacter baumannii, 12.5 µg/mL (≈ 4.94 µM). For the same molecule, the MIC with Pseudomonas aeruginosa worked out at 50 µg/mL (≈ 19.8 µM); in the experiment on Klebsiella aerogenes, 100 µg/mL (≈ 39.5 µM); against Staphylococcus aureus, 100 µg/mL (≈ 39.5 µM); in the experiment on Klebsiella pneumoniae, 50 µg/mL (≈ 19.8 µM); against Enterococcus faecium it was 25 µg/mL (≈ 9.88 µM); against Acinetobacter baumannii, 12.5 µg/mL (≈ 4.94 µM).

`CC(=O)N[C@@H](CCCCN)C(=O)N[C@@H](CCCCN)C(=O)N[C@@H](CCCCN)C(=O)N[C@@H](CCCCN)C(=O)NCC(=O)N[C@@H](Cc1ccccc1)C(=O)N1Cc2ccccc2C[C@H]1C(=O)N1CC2CCCCC2[C@H]1C(=O)NCC(=O)N[C@@H](CCCCN)C(=O)N1Cc2ccccc2C[C@H]1C(=O)N1CC2CCCCC2[C@H]1C(=O)NCC(=O)N[C@@H](Cc1ccccc1)C(=O)N1Cc2ccccc2C[C@H]1C(=O)N1CC2CCCCC2[C@H]1C(=O)NCC(=O)N[C@@H](CCCCN)C(=O)N1Cc2ccccc2C[C@H]1C(N)=O` (stereo partly drawn) (Ac-KKKKGF[Tic][Pro(3ξ,4ξ-(CH2)4)]GK[Tic][Pro(3ξ,4ξ-(CH2)4)]GF[Tic][Pro(3ξ,4ξ-(CH2)4)]GK[Tic]-NH2): the MBC with Pseudomonas aeruginosa was > 100 µg/mL; in the experiment with Klebsiella aerogenes, > 100 µg/mL; against Staphylococcus aureus, > 100 µg/mL; in the experiment with Klebsiella pneumoniae, 100 µg/mL (≈ 41 µM); in the experiment with Enterococcus faecium, > 100 µg/mL; with Acinetobacter baumannii, 25 µg/mL (≈ 10.2 µM). Besides, the minimum inhibitory concentration (MIC) against Pseudomonas aeruginosa is > 100 µg/mL; in the experiment with Klebsiella aerogenes it was > 100 µg/mL; against Staphylococcus aureus, > 100 µg/mL; against Klebsiella pneumoniae, 100 µg/mL (≈ 41 µM); in the experiment with Enterococcus faecium, 25 µg/mL (≈ 10.2 µM); with Acinetobacter baumannii, 12.5 µg/mL (≈ 5.12 µM).
